Biological target: T1, protein Z (PZ)
T1 construct: gene PAZ1; single band ~40 kDa; three Trp printed (Trp-150, Trp-186, Trp-257)
Test: Trp fluorescence quenching titration
Format: binding, Hordeum vulgare
Conditions: 50.0 mM sodium citrate pH 4.2, 25 °C; 1.0 μM PZ; n = 22.11 ± 2.13 sites per PZ; read-out: K

COc1cc(/C=C/C(=O)O)ccc1O [ferulic acid]
Kd: 2000 nM

From PMC9857996, “Inhibition of Iron Release from Donkey Spleen Ferritin through Malt-Derived Protein Z–Ferulic Acid Interactions” (Foods, 2023)
